Source: patent publication US12571019B2, “Nisin-permeabilized microbial cell catalysts” (DANMARKS TEKNISKE UNIVERSITET, priority 2020, dated 2026)

What was measured:
S. thermophilus = details: Somkuti et al., 1998; cited from earlier work
S. thermophilus CS1980 = experiment: Lactose hydrolysis in POM buffer by permeabilized S. thermophilus CS1980 whole-cell catalyst; type: cell-based, Streptococcus thermophilus; details: for stability of the whole-cell catalyst: permeabilized 10 minutes at 28° C. (45% (v/v) ethanol or 2.5 μg/ml nisin), hydrolysis 50° C.
Description: S. thermophilus CS1980 was grown in 500-ml Erlenmeyer flasks containing 200 ml of medium at 37° C. for 16 h without agitation. As inoculum, 2 ml of a 24 hour, outgrown culture was used. Cells were collected by centrifugation at 10,000 g for 10 min at 4° C., washed once with sterile POM buffer (50 mM K2HPO4/KH2PO4, 1 mM MgCl2, pH 7.4) and finally re-suspended in POM buffer to an optical density (600 nm) of 0.33, corresponding to approximately 100 mg/l dry cell weight. The cell suspension was kept on ice until use. For permeabilization, cell suspensions were dispensed into sterile tubes (1 ml per tube) and centrifuged in a microcentrifuge at top speed for 5 min at 4° C.
Samples were withdrawn at different time points, and conversion of lactose (formation of glucose and galactose) was determined by HPLC analysis.
The concentrations of sugars (carbohydrate monomers and dimers) were determined using an Ultimate 3000 high-pressure liquid chromatography system (Dionex, Sunnyvale, CA) equipped with an Aminex HPX-87H column (Bio-Rad, Hercules, CA) and a Shodex RI-101 detector (Showa Denko KK, Tokyo, Japan). The column oven temperature was set to 30° C., and the mobile phase consisted of 5 mM H2SO4 with a flowrate of 0.5 ml/min.
Hydrolysis took place at 50° C.
Hydrolysis of lactose in POM buffer (50 g/l lactose) at 50° C. was carried out at a cell concentration of approximately 100 mg/l.
Hydrolysis of lactose (50 g/1) was carried out in POM buffer at 50° C.

[1] = test system: S. thermophilus strains from starter culture ST057; experiment: Lactose hydrolysis in POM buffer by nisin-permeabilized S. thermophilus strains from starter culture ST057; type: cell-based, Streptococcus thermophilus
Description: Streptococcus thermophilus (S. thermophilus) strain CS1980 was isolated from a Danish yoghurt (same as used in example 1). Additional S. thermophilus strains were isolated from starter cultures kindly provided by Sacco Srl. Italy (ST057, ST022).
Hydrolysis was performed at 50° C.

S. thermophilus ST057-1 = experiment: Hydrolysis of lactose in milk by nisin-permeabilized S. thermophilus ST057-1; type: cell-based, Streptococcus thermophilus
Description: Nisin-treated S. thermophilus ST057-1 was applied in hydrolysis of lactose in milk, at cell concentration of approximately 100 mg/l or 1 g/l. […] The starting concentration of lactose in the milk used was 52 g/l. Hydrolysis took place at 50° C.
Hydrolysis of lactose in milk (52 g/l lactose) using nisin-treated cells was carried out at a cell concentration of approximately 1 g/l. Hydrolysis took place at 50° C.

[2] = test system: L. lactis strain MG1363 ΔldhB ΔldhX Δpta ΔadhE ΔbutBA ΔaldB (RD04); experiment: Alpha-acetolactate synthase activity of nisin-permeabilized L. lactis RD04 (pyruvate to alpha-acetolactate, HPLC); type: cell-based, Lactococcus lactis; details: 100 μg/ml nisin, 15 min 37° C.; 200 mM sodium pyruvate
Description: A modified L. lactis strain MG1363 lacking alpha-acetolactate decarboxylase activities was used in the present experiment. More specifically, the strain RD04 was L. lactis strain MG1363 ΔldhB ΔldhX Δpta ΔadhE ΔbutBA ΔaldB, while harboring an expression vector for overexpressing native alpha-acetolactate synthase (Als).
Alpha-acetolactate synthase activity was determined by investigating the conversion rate of pyruvate to alpha-acetolactate, using HPLC measurements of alpha-acetolactate formation.

Molecule	permeabilizing agent effect on measurable beta-galactosidase activity (S. thermophilus)	stability of the whole-cell catalyst (S. thermophilus CS1980)	lactose hydrolyzed (S. thermophilus CS1980; 2.5 μg/ml nisin 10 min, 100 mg/l cells, 50 g/l lactose in POM buffer, hydrolysis at 50° C., within 24 hours)	lactose conversion compared to control and ethanol-permeabilized cells (S. thermophilus CS1980; 2.5 μg/ml nisin, 10 minutes 28° C., 50 g/l lactose POM buffer, 50° C., 100 mg/l cells)	effect of prolonged nisin treatment (S. thermophilus CS1980; 30 minutes vs 10 minutes permeabilization)	efficiency of permeabilization at different permeabilization temperatures (S. thermophilus CS1980; permeabilization at 28° C. and 37° C., 2.5 μg/ml nisin 10 min)	cell stability after permeabilization (S. thermophilus CS1980; permeabilization at 55° C., 2.5 μg/ml nisin)	efficiency of permeabilization at different permeabilization temperatures (S. thermophilus CS1980; permeabilization temperatures 28-50° C., 2.5 μg/ml nisin)	time to reach 80% hydrolysis ([1]; POM buffer, 100 mg/l whole-cell catalyst, 50° C.)	conversion of the lactose ([1]; two strains from starter culture ST057, 2.5 μg/ml nisin 10 min 28° C., hydrolysis 50° C., in less than half of the time of the other strains)	time to reach 80% hydrolysis (S. thermophilus ST057-1; milk (52 g/l lactose), 100 mg/l whole-cell catalyst, 50° C.)	conversion rate on increasing the whole-cell catalyst concentration (S. thermophilus ST057-1; milk, 1 g/l vs 100 mg/l cells, 50° C.)	lactose conversion in milk at different permeabilization temperature (S. thermophilus ST057-1; permeabilization 28° C. vs 37° C., 1 g/l cells, hydrolysis 50° C.)	conversion of pyruvate to alpha-acetolactate compared to non-permeabilized cells [2]
CCO [ethanol]	efficient as a permeabilizing agent	compromised the stability of the whole-cell catalyst	–	–	–	–	–	–	–	–	–	–	–	–
nisin A	–	higher stability	95%	perform better than the control as well as the ethanol-permeabilized cells	does not give better results	equally efficient	seemed to be compromised	equally efficient	≤ 4 h	> 90%	more than 12 hours	significantly increased	performed equally well	performed much better than non-permeabilized cells
